We go through four compounds from patent publication US9486493B2, “Use of a peptide and an analgesic pharmaceutical agent” (priority 2007, dated 2016).

The subject of test [1] is pain reaction in mice with inflammation. Briefly: Freund's adjuvant limb inflammation in mice, acute pain by tail dipping in 55° C water. Format: in vivo. As to the method:
Inflammation was induced in mice through the administration of Freund's adjuvant into a limb. After two days, a progressing inflammation was observed. The analgesic activity of biphalin was observed following a week, during acute pain caused by tail dipping in water at a temperature of 55° C.

The test system is the same in test [2]. Description: Animal pain model of tumour metastasis (human ovarian cancer cells into a rear limb), tail dipping in 55° C water. Format: in vivo. Conditions: for dose necessitated for a similar analgesic effect: control group lacking the inflammation; for analgesic activity (pain reaction): mice with inflammation, after two weeks. How it is done: In an animal pain model of tumour metastasis, inflammation was induced though the injection of a million human ovarian cancer cells into a rear limb. After two days, we observed a progressing inflammation induced by tumour take. The analgesic activity of biphaline was observed after two weeks, during acute pain caused by tail dipping in water at a temperature of 55° C. […] In the control group, which lacked the inflammation, a similar analgesic effect necessitated the use of a dose of 1 mg/kg.
In an animal pain model of tumour metastasis, inflammation was induced though the injection of a million human ovarian cancer cells into a rear limb. After two days, we observed a progressing inflammation induced by tumour take. The analgesic activity of (Tyr-Ser-Gly-Phe-NH—)2 was observed after two weeks, during acute pain caused by tail dipping in water at a temperature of 55° C. […] In the control group, which lacked the inflammation, a similar analgesic effect necessitated the use of a dose of 4 mg/kg.

Test [3] concerns acute pain in rat with inflammation. Description: Animal rheumatoid inflammation model (Mycobacterium butyricum into the tarsal joint), thermal stimulation of the tail. Conditions: for antinociceptive effects: control group; for analgesic effect on acute pain: rat with inflammation, 0.5 mg/kg, after two weeks. Format: in vivo. As to the method: In an animal rheumatoid inflammation model, an anaesthetised rat was injected with homogenates of thermically inactivated Mycobacterium butyricum suspended in sunflower oil at a volume ratio of 1:1 into the tarsal joint. After two weeks inflammation was observed. The analgesic effect on acute pain was observed using thermal stimulation of the tail.

The conditions of test [4]: intravenous administration; cited from earlier work.
For test [5] the following is noted: directly into the subarachnoid space (intrathecal), rats; cited from earlier work.
The conditions of test [6]: humans; cited from earlier work.

Where no end group is shown, it is not given here.

In the case of `C[C@@H](NC(=O)[C@@H](N)Cc1ccc(O)cc1)C(=O)NCC(=O)N[C@@H](Cc1ccccc1)C(=O)NNC(=O)[C@H](Cc1ccccc1)NC(=O)CNC(=O)[C@@H](C)NC(=O)[C@@H](N)Cc1ccc(O)cc1` [biphalin], the “analgesic activity (pain reaction)” value in test [1] (control group lacking the inflammation, same dose 50 μg/kg intravenous) is “no effect was observed”; in test [1] (mice with inflammation, 50 μg/kg intravenous, one week after Freund's adjuvant) it was “complete disappearance of the pain reaction”; in test [2] (100 μg/kg intraperitoneal), “complete disappearance of the pain reaction”. In addition, the “dose necessitated for a similar analgesic effect” value in test [2] is 1 mg/kg. In addition, the antinociceptive effects entry in test [3] (same amount (0.5 mg/kg)) is reported as “no antinociceptive effects were observed”. Also, in test [3], the “analgesic effect on acute pain” value is “completely blocked pain effects”. Besides, the “activity relative to morphine” value in test [4] was “equivalent to that of morphine”. Besides, the “activity relative to morphine administered the same way” value in test [5] was ~1000 fold.

On to `CN1CC[C@]23c4c5ccc(O)c4O[C@H]2[C@@H](O)C=C[C@H]3[C@H]1C5` [morphine], for which the “minimum effective dose usually used as an initial analgesic dose” value in test [6] is 1 mg.

On to (Tyr-D-Thr-Gly-Trp-NH—)2, for which, in test [3] (after administration of 4 mg/kg), the antinociceptive effects entry is “no antinociceptive effects were observed”. Besides, the “analgesic effect on acute pain” value in test [3] is “completely blocked pain effects”.

With “(Tyr-Ser-Gly-Phe-NH—)2 (YSGF; also: dimer linked via C-terminal NH hydrazide bridge) [opioid peptide, analogue of biphalin]”, the “dose necessitated for a similar analgesic effect” value in test [2] is 4 mg/kg. For the same compound, in test [2] (50 μg/kg intraperitoneal), the “analgesic activity (pain reaction)” value is reported as “complete disappearance of the pain reaction”.
